According to article PMC9672091, “Ameliorative effect of vanillin on scopolamine-induced dementia-like cognitive impairment in a mouse model” (Frontiers in Neuroscience, 2022):

Target: T1, acetylcholinesterase enzyme (from electric eel) (Electrophorus electricus, UniProt O42275)
T1 construct: gene ache; commercial enzyme from electric eel (Sigma-Aldrich), native source; no construct or oligomer details printed
Assay: modified Ellman assay, absorbance at […] nm
Format: biochemical

T1 sequence (O42275 24-633): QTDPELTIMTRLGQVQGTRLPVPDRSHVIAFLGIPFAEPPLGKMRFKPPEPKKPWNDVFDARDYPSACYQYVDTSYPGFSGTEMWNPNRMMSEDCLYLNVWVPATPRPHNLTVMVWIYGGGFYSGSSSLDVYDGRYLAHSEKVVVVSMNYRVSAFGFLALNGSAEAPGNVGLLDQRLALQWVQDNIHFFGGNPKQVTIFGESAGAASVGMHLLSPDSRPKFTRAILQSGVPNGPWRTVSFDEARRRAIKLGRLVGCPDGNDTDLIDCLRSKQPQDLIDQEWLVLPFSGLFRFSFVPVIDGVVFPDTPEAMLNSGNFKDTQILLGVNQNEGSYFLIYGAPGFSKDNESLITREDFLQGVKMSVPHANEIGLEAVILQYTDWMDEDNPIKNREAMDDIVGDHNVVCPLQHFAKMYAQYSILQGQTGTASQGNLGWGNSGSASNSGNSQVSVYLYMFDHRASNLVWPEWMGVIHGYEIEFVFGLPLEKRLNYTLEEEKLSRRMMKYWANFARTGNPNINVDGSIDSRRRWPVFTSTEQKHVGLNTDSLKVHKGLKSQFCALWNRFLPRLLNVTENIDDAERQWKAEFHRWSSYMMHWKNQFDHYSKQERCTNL

Structure (SMILES): COc1cc(C=O)ccc1O [Vanillin]
- IC50: 33 µM
